Experimental data: patent US20180282271A1, “ANTIBIOTIC AMINO ACID MIMETICS” (priority 2017, published 2018)
Values after ≈ are worked out from the molar mass of the structure shown. Values joined by “and” are separate entries in the source; they are usually repeats but may differ in a detail not shown here. Identical values can stand only once. Counter-ions that a name gives are not always drawn. Where a SMILES comes first, the peptide text is derived from it. [ ]: non-standard residue; d: D form. The star is where a group is joined. ξ: configuration not given here. ξF = NC(Cc1ccccc1)C(=O)O; ξhCys = NC(CCS)C(=O)O; ξhSer = NC(CCO)C(=O)O; ξC = NC(CS)C(=O)O; tBu = CC(C)(C)*; NHOH = ON*

Key:
S. aureus = assay: MIC, conventional methods; type: cell-based, Staphylococcus aureus
Procedure: (§1) The following L,L-dipeptides were tested for their minimum inhibitory concentrations against three different bacterial strains as set forth in the table below. The testing protocol followed conventional methods and identified a MIC value reported as micrograms per milliliter (μg/mL). Each of the dipeptides had the following structure: Based on the above results, the sidechain of the methionine mimetic was modified to evaluate the effect of such substitution on MIC values. Again, this test used conventional assays to measure the MIC values of each of these modified mimetics.

E. coli = assay: MIC, conventional methods; type: cell-based, Escherichia coli
Procedure: as §1

P. aer. = assay: MIC, conventional methods; type: cell-based, Pseudomonas aeruginosa
Procedure: as §1

E. coli (ATTC 8739) = assay: Zone of inhibition test; type: cell-based; conditions: for concentration at which a zone of inhibition was shown: E. coli grown in a Petri dish, FIG. 1A/1B; for strength of the zone of inhibition, in words: cpd. A at 50 μg, Ex. 3 at 12.5 μg
Procedure: Compound A was tested against L-phenylalanine-(S)-2-amino-N-hydroxy-4-(methylthio)butanamide hydrochloride (Example 3) in a side-by-side comparison in a conventional zone of inhibition test. In this test, both compounds were compared at various concentrations against E. coli (ATTC 8739) grown in a Petri dish using the antibiotic kanamycin as a control.

[1] = system: Neisseria gonorrhoeae MMX 683/ATCC 49226; assay: Broth microdilution MIC, standard CLSI media, ATCC QC organism; type: cell-based
Procedure: (§2) The test organisms were originally received from clinical sources or from the American Type Culture Collection (ATCC, Manassas, Va.). When received, the organisms were subcultured onto an appropriate agar medium. Following incubation, colonies were harvested from the plate and a cell suspension was prepared in broth containing cryoprotectant and frozen at −80° C. Prior to the assay, a frozen vial of the culture was partially thawed and the contents were streaked for isolation onto an appropriate growth medium. The agar plates were incubated overnight at 35° C. Test organisms included staphylococci and enterococci (Table 1), streptococci (Table 2), Enterobacteriaceae (Table 3), lactose non-fermenting Gram-negative bacilli (Table 4), Haemophilus influenzae (Table 5), Neisseria gonorrhoeae (Table 5), and Clostridium difficile (Table 6).
(§3) The standard CLSI broth medium was employed for the purposes of quality control of the comparator drugs for the MIC assay and was only used for testing of relevant ATCC quality control isolates as established by CLSI (1-5).
(§4) MIC values were determined using a broth microdilution method as recommended by CLSI (1-5).
(§5) Column 1 was filled with 300 μL of the investigational and control agents at the appropriate stock concentration (40× of the highest test concentration). The Biomek 2000 was used to make eleven 2-fold serial dilutions to create a “mother plate.” The wells of column 12 contained no drug and served as growth control wells.
(§6) The daughter plates were prepared on the Biomek FX instrument which transferred 5 μL of drug solution from each well of the mother plate to the corresponding well of each daughter plate in a single step.
(§7) Standardized inoculum of each organism was prepared per CLSI methods (1-5). The inoculum for each organism was dispensed into sterile reservoirs divided by length (Beckman Coulter), and the Biomek 2000 was used to inoculate the plates. Daughter plates were placed on the Biomek 2000 work surface reversed so that inoculation took place from low to high drug concentration. The Biomek 2000 delivered 10 PL of standardized inoculum into each well resulting in a target inoculum size of approximately 5×10^5 CFU/mL. The wells of the daughter plates ultimately contained 185 μL of media, 5 μL of drug solution at 40× the test concentration, and 10 μL of bacterial inoculum prepared in media.
(§8) Plates were stacked 3-4 high, covered with a lid on the top plate, placed into plastic bags, and incubated at 35° C. under the appropriate conditions, with C. difficile incubated anaerobically. Plates were viewed post-incubation at 18-24 hr and again at 48 hr from the bottom using a plate viewer. […] MICs were read where visible growth of the organism was inhibited.

[2] = system: Pseudomonas aeruginosa MMX 103/ATCC 27853; assay: as above; type: cell-based
Procedure: as §2, §3, §4, §5, §6, §7, §8

[3] = system: Enterococcus faecalis MMX 101/ATCC 29212; assay: as above; type: cell-based
Procedure: as §2, §3, §4, §5, §6, §7, §8

[4] = system: Escherichia coli MMX 102/ATCC 25922; assay: as above; type: cell-based
Procedure: as §2, §3, §4, §5, §6, §7, §8

[5] = system: Clostridium difficile MMX 4381/ATCC 700057; assay: as above; type: cell-based; conditions: Clostridioides difficile, ATCC700057, 48 hr results
Procedure: as §2, §3, §4, §5, §6, §7, §8

[6] = system: Escherichia coli UNT116-1 (ATCC25922); assay: Murine superficial skin infection model; type: in vivo, mice; conditions: for Mean log10 CFU/wound: 50 uL topical +4, 8, 12, 16 & 20 hr, sampled +24 hr
Procedure: Evaluation of high dose of novel test article(s) for the treatment of a superficial skin infection in mice caused by Escherichia coli. […] Strain has been previously used separately for this infection at […]. Female 5-6 week old CD-1 (18-22 gm) were used in the studies. The mice were housed in groups of 5 with free access to food and water during the study. Cytoxan 150 mg/kg@15 mg/mL on Day-4 ONLY. The mice were anesthetized and kept sedated during the initial procedure under isoflurane vapors (3%). The fur on the back dorsal surface was shaved using electric clippers followed by 'wet shaving' with a disposable razor. The skin was then sterilized with a betadine wash followed by alcohol swab. An area of the shaved skin was then abraded utilizing a sterile gauze pad. Following this procedure, the skin became visibly damaged and characterized by reddening and glistening but no bleeding. […] The skin was then wiped with an alcohol swab and allowed to dry completely. After stripping of the skin, a bacterial infection was initiated by placing on the skin a 5-10 μL droplet containing approximately […] of both bacterium concentrated from overnight cultures in stationary phase. [table] Sponsors test articles were prepared in 0.05% methylcellulose. Fresh formulations were prepared for each day of dosing. The first application of each compound (N=10 mice/group) to the stripped skin of the mice was at 4 hr post-infection then continued q4 hr. For each treatment 50 uL of formulation was applied. Infection control groups' untreated mice were included with each experiment. The test was terminated 4 h after the last topical treatment. Immediately after the mice were euthanized (photographs of the wounds were taken for each group), the wounds, approximately 2 cm2, were excised, rinsed in sterile PBS and homogenized together with 2 ml of phosphate-buffered saline in a Polytron tissue homogenizer. The homogenates were washed once in phosphate-buffered saline to decrease the concentration of ointment. Suitable dilutions of the homogenates were plated on appropriate agar (with the addition of charcoal to avoid the effects of antibiotic carryover) for the organism to determine the number of living bacteria (CFU).

[7] = Table 2, side chain Q of the methionine mimetic varied
[8] = Table 1, L,L-dipeptides varied in T
[9] = Study #2, test articles 700 mg/mL, gentamicin 0.30%
[10] = Study #2, test articles 700 mg/mL, gentamicin 0.30%, topical, +24 hr

Row | Molecule | MIC S. aur. (S. aureus; [7]) [µg/mL] | MIC E. coli (E. coli; [7]) [µg/mL] | MIC P. aer. (P. aer.; [7]) [µg/mL] | MIC S. aur. (S. aureus; [8]) [µg/mL] | MIC E. coli (E. coli; [8]) [µg/mL] | MIC P. aer. (P. aer.; [8]) [µg/mL] | further results
1 | CS(=O)(=O)CCC(NC(=O)CN)C(=O)NO (stereo not shown) [H] | 104 (≈ 411 µM) | 208 (≈ 821 µM) | 416 (≈ 1640 µM) |  |  |  | 
2 | C[S+]([O-])CCC(NC(=O)CN)C(=O)NO (stereo not shown) [G] | 51 (≈ 215 µM) | 123 (≈ 518 µM) | 416 (≈ 1750 µM) |  |  |  | 
3 | CSCC[C@H](NC(=O)[C@@H]1CCCN1)C(=O)NO [D] (H-Pro-Met-{NHOH}) |  |  |  | 125 (≈ 478 µM) | 312 (≈ 1190 µM) | 270 (≈ 1030 µM) | 
4 | CSCC[C@H](NC(=O)[C@H](C)N)C(=O)NO [B] (H-Ala-Met-{NHOH}) |  |  |  | 131 (≈ 557 µM) | 158 (≈ 671 µM) | 1040 (≈ 4420 µM) | 
5 | CC(C)(C)SCC(NC(=O)CN)C(=O)NO (stereo not shown) [N] (H-Gly-[ξC](tBu)-{NHOH}) | 77 (≈ 309 µM) | 195 (≈ 782 µM) | 693 (≈ 2780 µM) |  |  |  | 
6 | CCSCCC(NC(=O)CN)C(=O)NO (stereo not shown) [J] (H-Gly-[ξhCys](Et)-{NHOH}) | 60 (≈ 255 µM) | 129 (≈ 548 µM) | 554 (≈ 2350 µM) |  |  |  | 
7 | CCCCC(NC(=O)CN)C(=O)NO (stereo not shown) [I] | 51 (≈ 251 µM) | 69 (≈ 339 µM) | 520 (≈ 2560 µM) |  |  |  | 
8 | CSCC[C@H](NC(=O)[C@@H](N)CCCCN)C(=O)NO [Compound E] |  |  |  | 104 (≈ 356 µM) | 312 (≈ 1070 µM) | >1660 | 
9 | COCCC(NC(=O)CN)C(=O)NO (stereo not shown) [O] (H-Gly-[ξhSer](Me)-{NHOH}) | 112 (≈ 546 µM) | 374 (≈ 1820 µM) | 624 (≈ 3040 µM) |  |  |  | 
10 | CCCCSCCC(NC(=O)CN)C(=O)NO (stereo not shown) [K] | 60 (≈ 228 µM) | 150 (≈ 570 µM) | 138 (≈ 524 µM) |  |  |  | 
11 | CSCC[C@H](NC(=O)CN)C(=O)NO [Compound A] | 84 (≈ 380 µM) | 138 (≈ 624 µM) | 647 (≈ 2920 µM) | 84 (≈ 380 µM) | 138 (≈ 624 µM) | 647 (≈ 2920 µM) | concentration at which a zone of inhibition was shown (E. coli (ATTC 8739)): 50 µg; strength of the zone of inhibition, in words (E. coli (ATTC 8739)): quite weak
12 | CCSCC(NC(=O)CN)C(=O)NO (stereo not shown) [M] (H-Gly-[ξC](Et)-{NHOH}) | 104 (≈ 470 µM) | 159 (≈ 719 µM) | 832 (≈ 3760 µM) |  |  |  | 
13 | C/C(=C\C(=O)OCCCCCCCCC(=O)O)C[C@@H]1OC[C@H](C[C@@H]2O[C@H]2[C@@H](C)[C@H](C)O)[C@@H](O)[C@H]1O [MUP, mupirocin] |  |  |  |  |  |  | MIC ([1]; ATCC49226, 24 hr results): > 256 µg/mL; MIC ([1]; ATCC49226, 48 hr results): > 256 µg/mL; MIC ([2]; ATCC27853, 24 hr results): > 256 µg/mL; MIC ([2]; ATCC27853, 48 hr results): > 256 µg/mL; MIC ([3]; ATCC29212, 24 hr results): 256 µg/mL (≈ 511 µM); MIC ([3]; ATCC29212, 48 hr results): > 256 µg/mL; MIC ([4]; ATCC25922, 24 hr results): > 256 µg/mL; MIC ([4]; ATCC25922, 48 hr results): > 256 µg/mL; MIC [5]: > 256 µg/mL
14 | Gentamicin |  |  |  |  |  |  | Mean log10 CFU/wound ([6]; Study #1, test articles 500 mg/mL, gentamicin 0.30%, wounds wrongly sprayed with 70% EtOH for test articles): 2.35 log10 CFU/wound; Mean log10 Change vs. +24 hr ([6]; Study #1, test articles 500 mg/mL, gentamicin 0.30%, topical, +24 hr): −5.37 log10; reduction of bacterial skin burden compared to the 24 hour untreated control [6, 9]: 5.98 log10 CFU/wound; Mean log10 CFU/wound [6, 9]: 2.46 log10 CFU/wound; Log 10 CFU/wound, individual animal [6, 10]: 2.83 Log 10 CFU/wound and 2.35 Log 10 CFU/wound (8×) and 2.95 Log 10 CFU/wound; Mean log10 Change vs. +4 hr [6, 10]: −1.36 log10; Mean log10 Change vs. +24 hr [6, 10]: −5.98 log10; 95.00% CI of diff., Tukey's multiple comparisons test ([6]; Study #2, vs. +4 hr Infection Control): −2.209 to −0.5115; 95.00% CI of diff., Tukey's multiple comparisons test ([6]; Study #2, vs. +24 hr Infection control): −6.678 to −5.292
15 | CSCC[C@H](NC(=O)[C@@H](N)C(C)C)C(=O)NO [C] (H-Val-Met-{NHOH}) |  |  |  | 416 (≈ 1580 µM) | 520 (≈ 1970 µM) | 833 (≈ 3160 µM) | 
16 | CSCC[C@H](NC(=O)[C@@H](N)CCC(=O)O)C(=O)NO [Compound F] (H-Glu-Met-{NHOH}) |  |  |  | 312 (≈ 1060 µM) | 554 (≈ 1890 µM) | 1660 (≈ 5660 µM) | 
17 | CSCC[C@H](NC(=O)C(N)Cc1ccccc1)C(=O)NO (stereo partly drawn) [Example 3, L-phenylalanine-(S)-2-amino-N-hydroxy-4-(methylthio)butanamide hydrochloride] (H-[ξF]-Met-{NHOH}) |  |  |  |  |  |  | concentration at which a zone of inhibition was shown (E. coli (ATTC 8739)): 12.5 µg; strength of the zone of inhibition, in words (E. coli (ATTC 8739)): substantially stronger than the zone of inhibition for cpd. A at 50 μg
18 | CC(C)(C)SCCC(NC(=O)CN)C(=O)NO (stereo not shown) [L] (H-Gly-[ξhCys](tBu)-{NHOH}) | 77 (≈ 292 µM) | 207 (≈ 786 µM) | 624 (≈ 2370 µM) |  |  |  | 
